This note sets out measurements from publication PMC9977398, “Next-generation membrane-active glycopeptide antibiotics that also inhibit bacterial cell division” (Chemical Science, 2023).

This experiment deals with B. subtilis. Nature of the experiment: Cytoplasmic membrane depolarization assay, DiSC3(5). The following applies: exponentially growing B. subtilis, 10 μM. In kind it is cell-based. From the text: The membrane disruption properties of both VanQbiph (4) and VanQAmC10 (8) were studied to correlate the extent of membrane perturbation and bactericidal activity against both exponentially growing and non-growing bacterial cells. Their ability to depolarize the membrane was monitored using the fluorescent probe DiSC3(5) (3,3′-dipropylthiadicarbocyanine iodide). DiSC3(5) is sensitive to the membrane potential and as it accumulates in the membrane, the fluorescence intensity decreases due to self-quenching. Upon dissipation of membrane potential, an increase in fluorescence is observed due to DiSC3(5) being dispersed in the solution. […]
were added to it the wells containing bacterial suspension. Fluorescence has monitored at excitation wavelength of 535 nm (slit width: 10 nm) and emission wavelength of 617 nm (slit width: 5 nm). As a measure of inner membrane permeabilization the uptake of PI was monitor by the increase in fluorescence for 30-50 min. […]
Mid log phase MRSA were harvested (3500 rpm, 5 min), washed in 5 mM glucose and 5 mM HEPES buffer (pH 7.2) in 1:1 ratio and resuspended in 5 mM HEPES buffer, 5 mM glucose and 100 mM KCl solution in 1:1:1 ratio. […] The fluorescence was monitored at excitation wavelength of 622 nm and emission wavelength of 670 nm. […] As a measure of membrane depolarization fluorescence was monitor for another 35 min. […]

Where only a bound is given, the exact number is not on record here.

On to `CNC(CC(C)C)C(=O)NC1C(=O)NC(CC(N)=O)C(=O)NC2C(=O)NC3C(=O)NC(C(=O)NC(C(=O)NCCC[N+](C)(C)Cc4ccc(-c5ccccc5)cc4)c4cc(O)cc(O)c4-c4cc3ccc4O)C(O)c3ccc(c(Cl)c3)Oc3cc2cc(c3OC2OC(CO)C(O)C(O)C2OC2CC(C)(N)C(O)C(C)O2)Oc2ccc(cc2Cl)C1O` (centres unmarked) [VanQbiph (4)], for which the “time to membrane depolarisation post-treatment” value is at most 2 min.
Under `CCCCCCCCCCNC(=O)C[N+](C)(C)CCCNC(=O)C1NC(=O)C2NC(=O)C(NC(=O)C3NC(=O)C(CC(N)=O)NC(=O)C(NC(=O)C(CC(C)C)NC)C(O)c4ccc(c(Cl)c4)Oc4cc3cc(c4OC3OC(CO)C(O)C(O)C3OC3CC(C)(N)C(O)C(C)O3)Oc3ccc(cc3Cl)C2O)c2ccc(O)c(c2)-c2c(O)cc(O)cc21` (centres unmarked) [VanQAmC10 (8)] stands at most 2 min.
